This is an account of results in PubChem BioAssay (NCI).

Some test systems named below: 786-0 renal; HCC-2998 colon; HCT-15 colon; HOP-92 NSCLC; M14 melanoma; MALME-3M melanoma; NCI-H522 lung; OVCAR-5 ovarian; SF-539 CNS; UO-31 renal.
Holding throughout (assay): DTP human tumour cell line panel, 48 h

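Growth conditions: 96-well plates. Treatment: test compound, 48 hours, 5 concentrations. Analysis: linear interpolation between bracketing concentrations; unreached endpoints set to highest concentration. The concentration for 50% growth inhibition is given as GI50. TGI: concentration producing complete growth inhibition.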 Where a SMILES comes first, the peptide text is derived from it. [ ]: non-standard residue; d: D form. The star is where a group is joined. NMeF = CN[C@@H](Cc1ccccc1)C(=O)O; NMeV = CN[C@H](C(=O)O)C(C)C; Boc = CC(C)(C)OC(=O)*; OBn = c1ccc(CO*)cc1

Turning to `Brc1ccccc1C=NC12CC3CC(CC(C3)C1)C2`, the TGI in the experiment on 786-0 renal, in the experiment with HCC-2998 colon, with HCT-15 colon, in the experiment on HOP-92 NSCLC, in the experiment with M14 melanoma and in the experiment with MALME-3M melanoma was above 100 µM in each case. For the same compound, the TGI in the experiment on NCI-H522 lung, in the experiment on OVCAR-5 ovarian, with SF-539 CNS and in the experiment on UO-31 renal was above 100 µM in each case.
Consider H-HIIKKIRTWYRKAWHVLGKV-NH2, for which the GI50 with 786-0 renal was 3.37 µM; with HCC-2998 colon, 3.88 µM; in the experiment on HCT-15 colon it was 4.24 µM; in the experiment with HOP-92 NSCLC, 2110 nM; in the experiment with M14 melanoma it was 4.17 µM; in the experiment with MALME-3M melanoma, 2.29 µM. For the same compound, the GI50 in the experiment with NCI-H522 lung was 11.1 µM; in the experiment on OVCAR-5 ovarian it was 6.22 µM; in the experiment on SF-539 CNS it was 2.14 µM; in the experiment on UO-31 renal, 18.6 µM. Further, the TGI was determined as 16.6 µM with 786-0 renal; 31.2 µM in the experiment on HCC-2998 colon; 64.7 µM in the experiment on HCT-15 colon; 6.75 µM with HOP-92 NSCLC; 22.8 µM in the experiment on M14 melanoma; 5.25 µM with MALME-3M melanoma. The TGI in the experiment on NCI-H522 lung came to 63.3 µM; in the experiment with OVCAR-5 ovarian it was 20.5 µM; in the experiment with SF-539 CNS, 5.31 µM; in the experiment on UO-31 renal it was 36.5 µM.
Regarding `CC(C)[C@@H](C(=O)N1CCC[C@H]1C(=O)OCc1ccccc1)N(C)C(=O)[C@H](C(C)C)N(C)C(=O)[C@H](Cc1ccccc1)N(C)C(=O)[C@H](NC(=O)OC(C)(C)C)C(C)C` (Boc-[dV][NMeF][NMeV][NMeV]P-OBn), the GI50 in the experiment on 786-0 renal is 39.5 µM; with HCC-2998 colon it was 68.9 µM; with HOP-92 NSCLC, 20900 nM; in the experiment on M14 melanoma, 41.7 µM. Moreover, the TGI in the experiment with 786-0 renal, in the experiment on HCC-2998 colon, with HCT-15 colon, in the experiment on HOP-92 NSCLC, in the experiment on M14 melanoma and in the experiment on MALME-3M melanoma was above 100 µM each time. For the same compound, the TGI with NCI-H522 lung is above 50 µM; in the experiment with OVCAR-5 ovarian it was above 100 µM; in the experiment with SF-539 CNS, above 100 µM; in the experiment with UO-31 renal it was above 100 µM.
In the case of `CC(=O)OC1Oc2cc(C)c(C)cc2-c2oc(=O)c(-c3ccc(F)cc3)cc21` (stereo unspecified), the GI50 was 9.55 µM with 786-0 renal; 3.97 µM with HCC-2998 colon; 2.68 µM with HCT-15 colon; 3100 nM in the experiment with HOP-92 NSCLC; 3.99 µM in the experiment with M14 melanoma; 5.04 µM with MALME-3M melanoma. Besides, the GI50 in the experiment with NCI-H522 lung was 4.53 µM; in the experiment on OVCAR-5 ovarian it was 6.3 µM; in the experiment with SF-539 CNS, 7.1 µM; in the experiment on UO-31 renal, 4.92 µM. The concentration for total growth inhibition (TGI) in the experiment with 786-0 renal was above 100 µM; in the experiment on HCC-2998 colon, 28.2 µM; with HCT-15 colon, 19.1 µM; with HOP-92 NSCLC, 16.9 µM; in the experiment with M14 melanoma, above 100 µM; with MALME-3M melanoma, 31.7 µM. In addition, the TGI is 19 µM in the experiment on NCI-H522 lung, above 100 µM in the experiment on OVCAR-5 ovarian, above 100 µM with SF-539 CNS and above 100 µM in the experiment on UO-31 renal.
Consider `COc1cc(Nc2nc3cc(C(F)(F)F)ccc3nc2-c2ccccc2)cc(OC)c1OC`, for which the TGI was above 100 µM in the experiment with 786-0 renal; above 100 µM with HCC-2998 colon; above 100 µM in the experiment with HCT-15 colon; 20.7 µM in the experiment with HOP-92 NSCLC; above 100 µM with M14 melanoma; above 100 µM with MALME-3M melanoma. Also, the total growth inhibition concentration (TGI) in the experiment with NCI-H522 lung is 83.4 µM; with OVCAR-5 ovarian, above 100 µM; in the experiment on SF-539 CNS it was above 100 µM; with UO-31 renal it was above 100 µM.
With `COC(=O)/C(=N\NC(=S)NN)C(C(=O)OC)C(=O)C(=O)Nc1cccc(C(F)(F)F)c1` (stereo unspecified), the TGI with 786-0 renal, with HCC-2998 colon, in the experiment on HCT-15 colon, in the experiment on HOP-92 NSCLC, in the experiment on M14 melanoma and with MALME-3M melanoma was above 100 µM each time. Besides, the TGI in the experiment on NCI-H522 lung, with OVCAR-5 ovarian, in the experiment with SF-539 CNS and in the experiment with UO-31 renal was above 100 µM each time.
On to `COc1ccccc1C(N)c1ccccc1` (stereo unspecified), for which the TGI in the experiment on 786-0 renal, in the experiment with HCC-2998 colon, in the experiment on HCT-15 colon, in the experiment on HOP-92 NSCLC, in the experiment with M14 melanoma and in the experiment with MALME-3M melanoma was above 100 µM throughout. The TGI in the experiment on NCI-H522 lung, with OVCAR-5 ovarian, with SF-539 CNS and in the experiment on UO-31 renal was above 100 µM throughout.
Regarding `Cc1[nH]nc2ccc3nc(-c4ccc5[nH]ncc5c4)c4c(c3c12)CCCC4`, the GI50 in the experiment on 786-0 renal is 1.19 µM; in the experiment on HCC-2998 colon, 2.19 µM; in the experiment with HCT-15 colon it was 0.638 µM; in the experiment on HOP-92 NSCLC it was 1910 nM; in the experiment on M14 melanoma, 0.604 µM; with MALME-3M melanoma, 1.33 µM. Also, the GI50 is 0.446 µM in the experiment with NCI-H522 lung, 2.53 µM with OVCAR-5 ovarian, 1.62 µM in the experiment with SF-539 CNS and 0.802 µM in the experiment with UO-31 renal. For the same compound, the TGI stood at 12.9 µM in the experiment on 786-0 renal; 15.1 µM with HCC-2998 colon; 12.6 µM with HCT-15 colon; 6 µM with HOP-92 NSCLC; 13.3 µM with M14 melanoma; 6.32 µM with MALME-3M melanoma. Also, the TGI in the experiment with NCI-H522 lung is 6.01 µM; with OVCAR-5 ovarian, 13.9 µM; with SF-539 CNS it was 8.44 µM; with UO-31 renal it was 5.99 µM.
In the case of `CCCCCCCCCCCCCCCCCC(=O)OCC(COC1OC(CS(=O)(=O)O)C(O)C(O)C1O)OC(=O)CCCCCCCCCCCCCCCCC` (stereo unspecified), the TGI in the experiment with 786-0 renal, with HCC-2998 colon, in the experiment on HCT-15 colon, in the experiment with HOP-92 NSCLC, in the experiment with M14 melanoma and with MALME-3M melanoma was above 100 µM in each case. Besides, the total growth inhibition concentration (TGI) in the experiment on NCI-H522 lung, in the experiment on OVCAR-5 ovarian and with SF-539 CNS was above 100 µM throughout.
For `Clc1ccc(C2=NN[C@H](c3cn(-c4ccccc4)nc3-c3ccccc3)C2)cc1`, the GI50 in the experiment with 786-0 renal is 4.88 µM; in the experiment with HCC-2998 colon it was 11.4 µM; with HCT-15 colon, 16.5 µM; in the experiment on HOP-92 NSCLC, 2240 nM; in the experiment on M14 melanoma, 7.67 µM; with MALME-3M melanoma it was 5.66 µM. For the same compound, the GI50 was 4.64 µM in the experiment with NCI-H522 lung, 8.95 µM with SF-539 CNS and 12.8 µM with UO-31 renal. Also, the TGI is 18.6 µM in the experiment on 786-0 renal; above 100 µM in the experiment on HCC-2998 colon; above 100 µM in the experiment with HCT-15 colon; 6.88 µM in the experiment on HOP-92 NSCLC; 32.1 µM in the experiment with M14 melanoma; above 100 µM in the experiment with MALME-3M melanoma. In addition, the TGI in the experiment on NCI-H522 lung was 28.4 µM; with SF-539 CNS it was 23 µM; with UO-31 renal, above 100 µM.

A word on the TGI: it is the concentration giving total growth inhibition. Higher therefore signals less potent growth arrest. Usually GI50 stands for the concentration that inhibits growth by half.
